Experimental data as given in PMC5824344 (ACS Chemical Biology, 2017).

How the values were obtained:
[1] = target: T1, Rat liver ER α-glucosidase II (Rattus norvegicus, UniProt A0A8I6GFL3); test: Inhibition of isolated rat liver ER α-glucosidase II (α-p-nitrophenylglucoside substrate); assay type: biochemical; details: isolated enzyme in vitro; read-out: IC50 with regard to GluII
T1 construct: Rat liver ER, II; from tissue; host or cells: liver of male Wistar rats
Description: (§1) 4 Enzyme Inhibition Assays
(§2) All rat enzymes were isolated from 18-week-old, male Wistar rats, while human lysosomal α-glucosidase was obtained in commercially available form from Sanoﬁ Genzyme. Inhibition of isolated glucosidases was evaluated as described previously. 3 Brieﬂy, maltase, isomaltase, sucrase, and cellobiase were used as partially puriﬁed tissue extracts. Inhibition assays for each enzyme were performed with the respective natural substrate, and release of d-glucose measured by Glucose B-test (Wako Diagnostics). Assays of rat ER α-glucosidase II and human lysosomal α-glucosidase inhibition were conducted with α-p-nitrophenylglucoside as substrate; 400 mm Na2CO3 was added to quench these reactions, and the extent of hydrolysis was evaluated as absorbance at 400 nm by spectrophotometer.
(§3) ER α-glucosidase I inhibition assays were performed using anthranilic acid-labelled Glc3Man7GlcNAc2 as substrate. After terminating the reaction with acetonitrile, protein was removed by cen-trifugation through a 10 kDa molecular weight cut oﬀ ﬁlter. The amount of hydrolysis was then quantiﬁed by normal phase high performance liquid chromatography analysis of unreacted substrate and product (Glc2Man7GlcNAc2).4
(§4) ER α-glucosidase II inhibition assays using native-like substrates were performed using an-thranilic acid-labelled Glc2Man7GlcNAc2 as substrate. After terminating the reaction with acetonitrile, protein was removed by centrifugation through a 10 kDa molecular weight cut oﬀ ﬁlter. The amount of hydrolysis was then quantiﬁed by normal phase high performance liq-uid chromatography analysis of unreacted substrate and both products (Glc1Man7GlcNAc2

Rat intestinal maltase = test: Inhibition of rat intestinal maltase (natural substrate, glucose release); assay type: biochemical; details: isolated enzyme in vitro; mean of three measurements; read-out: IC50, α-Glucosidase, Rat intestinal maltase
Description: as §1, §2, §3, §4

[2] = target: T2, Rat liver ER α-glucosidase I (Rattus norvegicus, UniProt O88941); test: Inhibition of isolated rat liver ER α-glucosidase I (anthranilic acid-labelled Glc3Man7GlcNAc2 substrate, HPLC); assay type: biochemical; details: isolated enzyme in vitro; mean of three measurements
T2 construct: Rat liver ER, I; from tissue; host or cells: liver of male Wistar rats
T2 sequence (O88941 1-834): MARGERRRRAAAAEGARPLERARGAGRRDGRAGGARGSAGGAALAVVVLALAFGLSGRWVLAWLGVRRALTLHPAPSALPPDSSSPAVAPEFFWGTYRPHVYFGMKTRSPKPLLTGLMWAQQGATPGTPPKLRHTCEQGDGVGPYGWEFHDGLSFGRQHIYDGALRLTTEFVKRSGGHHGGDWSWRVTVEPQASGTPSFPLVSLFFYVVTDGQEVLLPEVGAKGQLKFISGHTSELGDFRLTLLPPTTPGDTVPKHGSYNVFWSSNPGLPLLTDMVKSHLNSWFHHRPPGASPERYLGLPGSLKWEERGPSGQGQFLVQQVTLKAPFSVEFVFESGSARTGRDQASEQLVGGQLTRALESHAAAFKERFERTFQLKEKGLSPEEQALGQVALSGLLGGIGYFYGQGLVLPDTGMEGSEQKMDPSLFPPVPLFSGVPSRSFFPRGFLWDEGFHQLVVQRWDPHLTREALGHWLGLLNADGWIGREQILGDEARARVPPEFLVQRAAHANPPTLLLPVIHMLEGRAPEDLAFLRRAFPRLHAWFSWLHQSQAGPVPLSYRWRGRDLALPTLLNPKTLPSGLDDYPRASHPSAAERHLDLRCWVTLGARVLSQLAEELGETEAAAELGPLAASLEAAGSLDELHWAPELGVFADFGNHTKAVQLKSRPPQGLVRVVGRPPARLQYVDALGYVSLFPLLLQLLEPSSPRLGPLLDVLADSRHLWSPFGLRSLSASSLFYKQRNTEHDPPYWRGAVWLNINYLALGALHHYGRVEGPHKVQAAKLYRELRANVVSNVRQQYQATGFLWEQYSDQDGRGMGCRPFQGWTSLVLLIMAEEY
Description: as §1, §2, §3, §4

[3] = target: T3, Rat intestinal isomaltase (Rattus norvegicus, UniProt P23739); test: Inhibition of rat intestinal isomaltase (natural substrate, glucose release); assay type: biochemical; details: isolated enzyme in vitro; mean of three measurements; read-out: IC50, α-Glucosidase, Rat intestinal isomaltase
T3 construct: from tissue; host or cells: intestine of male Wistar rats, partially purified extract
T3 sequence (P23739 whole entry): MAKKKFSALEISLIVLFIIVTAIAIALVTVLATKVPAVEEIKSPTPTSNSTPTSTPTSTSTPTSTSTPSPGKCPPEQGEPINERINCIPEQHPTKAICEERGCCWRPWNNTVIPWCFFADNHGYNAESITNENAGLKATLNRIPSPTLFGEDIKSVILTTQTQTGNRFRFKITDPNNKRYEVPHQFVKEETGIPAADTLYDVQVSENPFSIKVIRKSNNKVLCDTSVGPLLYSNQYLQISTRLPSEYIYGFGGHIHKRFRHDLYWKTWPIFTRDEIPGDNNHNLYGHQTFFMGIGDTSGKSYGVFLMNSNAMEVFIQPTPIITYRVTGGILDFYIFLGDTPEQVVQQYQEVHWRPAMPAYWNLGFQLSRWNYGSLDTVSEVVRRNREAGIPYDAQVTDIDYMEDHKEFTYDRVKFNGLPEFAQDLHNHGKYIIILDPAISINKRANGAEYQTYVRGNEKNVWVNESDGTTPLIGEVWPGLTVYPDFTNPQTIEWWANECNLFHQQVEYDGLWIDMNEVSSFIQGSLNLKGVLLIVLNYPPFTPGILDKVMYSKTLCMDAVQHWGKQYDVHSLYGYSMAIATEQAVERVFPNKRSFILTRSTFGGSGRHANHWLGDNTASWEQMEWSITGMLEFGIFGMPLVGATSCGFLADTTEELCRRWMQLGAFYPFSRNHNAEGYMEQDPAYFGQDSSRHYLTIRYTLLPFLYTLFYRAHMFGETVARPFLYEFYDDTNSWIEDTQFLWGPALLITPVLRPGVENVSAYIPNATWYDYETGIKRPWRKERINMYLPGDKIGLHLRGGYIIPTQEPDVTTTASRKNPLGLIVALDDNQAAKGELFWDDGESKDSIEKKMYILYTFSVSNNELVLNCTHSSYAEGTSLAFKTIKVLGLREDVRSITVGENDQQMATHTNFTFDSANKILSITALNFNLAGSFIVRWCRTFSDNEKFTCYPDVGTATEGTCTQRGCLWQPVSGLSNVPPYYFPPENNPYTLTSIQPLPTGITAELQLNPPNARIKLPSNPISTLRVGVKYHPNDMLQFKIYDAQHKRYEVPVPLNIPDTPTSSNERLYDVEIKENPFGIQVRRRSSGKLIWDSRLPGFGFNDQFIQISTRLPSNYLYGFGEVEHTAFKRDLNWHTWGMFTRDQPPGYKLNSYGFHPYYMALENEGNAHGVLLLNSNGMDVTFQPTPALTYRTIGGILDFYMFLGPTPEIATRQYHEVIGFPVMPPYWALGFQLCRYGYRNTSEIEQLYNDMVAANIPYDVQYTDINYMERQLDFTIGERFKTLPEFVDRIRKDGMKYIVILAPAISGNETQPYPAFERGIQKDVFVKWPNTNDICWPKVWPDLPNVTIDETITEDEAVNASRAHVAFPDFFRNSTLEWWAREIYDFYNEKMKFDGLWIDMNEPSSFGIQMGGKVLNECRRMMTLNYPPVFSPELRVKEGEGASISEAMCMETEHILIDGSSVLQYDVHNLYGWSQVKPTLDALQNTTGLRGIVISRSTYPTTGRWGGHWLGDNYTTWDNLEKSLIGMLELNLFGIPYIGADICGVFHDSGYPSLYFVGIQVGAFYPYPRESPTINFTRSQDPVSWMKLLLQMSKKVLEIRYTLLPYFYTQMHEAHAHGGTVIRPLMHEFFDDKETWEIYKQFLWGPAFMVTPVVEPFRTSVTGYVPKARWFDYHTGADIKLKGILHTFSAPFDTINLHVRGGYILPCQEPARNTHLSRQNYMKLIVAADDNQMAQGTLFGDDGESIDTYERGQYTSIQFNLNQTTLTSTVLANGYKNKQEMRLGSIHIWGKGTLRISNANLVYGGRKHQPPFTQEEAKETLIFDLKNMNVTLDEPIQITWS
Description: as §1, §2, §3, §4

[4] = system: DENV2 strain 16681 in primary human MDMΦ; test: DENV primary MDMΦ antiviral assay (infectious titer by plaque assay); assay type: cell-based, dengue virus; details: dengue-infected MDMΦ, 7 donors
Description: each well was scored as either positive (≥ 5 stained cells) or negative. TCID50 values were calculated according to the method of Reed and Muench.8
5.7 DENV Primary MDMΦ Antiviral Assay
DENV2 strain 16681 (a gift from Prof. E. Gould, Centre for Ecology and Hydrology, Oxford, United Kingdom) was propagated in the C6/36 cell line. In the antiviral assay, MDMΦ cells (7 donors) were seeded in a 24-well plate at a density of 1× 10^6 cells/well in 1 mL of growth media. The cells were inoculated for 2 h with DENV2 16681 strain at an MOI of 1. […]
(§5) The infectious DENV titres in supernatants collected were evaluated by plaque assay as described previously.9 Brieﬂy, LLC-MK2 cells were seeded in conﬂuent monolayers in a 12-well plate. Four 10-fold dilutions of each supernatant to be analyzed were prepared in minimum essential media (MEM, Gibco), supplemented with 100 µg mL−1 streptomycin, 100 U mL−1 penicillin and 10% (v/v) FCS. […]
(§6) After 1 d, plaques were observed and counted from the underside of the plate by eye. […]
18 healthy male BALB/c mice (8 – 12 weeks old) weighing between 20 and 35 g were procured from ACTREC, Mumbai, India. […] Temperature and humidity were recorded by an auto-controlled data logging system and maintained at 22± 3◦C and 55± 15% humidity, respectively. […]

[5] = system: HCV (JFH-1) in Huh7.5 cells; test: HCV antiviral assay in Huh7.5 cells (infectious titer by TCID50 assay); assay type: cell-based, hepatitis C virus; details: MOI 2, 96 h, titration of 4 or 50 µm of 3
Description: (§7) Supplemental Figure 3: Antiviral activity of 4 in human hepatoma Huh7.5 cell line.
(§8) (A) Huh7.5 cells were infected with DENV (serotype 2, strain 16681, multiplicity of infection = 0.1) and treated with a titration of ToP-DNJ 4 or 50 µm of tocopherol 3 for 48 h. Infectious virus titer was measured by plaque assay on LLC-MK2 cells. Counts were normalized to 100% for untreated samples.
(§9) DENV eﬀect at the concentrations tested. (B) Huh7.5 cells were infected with HCV (JFH-1, multiplicity of infection = 2) and treated with a titration of ToP-DNJ 4 or 50 µm tocopherol 3 for 96 h. Infectious virus titer was measured by TCID50 assay on […]
(§10) tested. In both panels, each data point represent the mean of triplicates, with error bars showing standard error of the mean (GraphPad Prism). […]
Huh7.5 cells were seeded in a 96-well plate at a density of 5× 10^3 cells/well in 100 µL growth media. […] The supernatant was harvested, and infectious viral titre assessed immediately in the TCID50 assay.
Huh7.5 cells were seeded in a 96-well plate at a density of 2× 10^4 cells/well in 100 µL of growth media and incubated for 18 h. The supernatants to be evaluated were diluted 1:10 in growth media, and 7 serial half-log10 dilutions were subsequently prepared in the same media. […]
(§11) each well was scored as either positive (≥ 5 stained cells) or negative. TCID50 values were calculated according to the method of Reed and Muench.8 […]

[6] = set-up: method as in PMID 15522126; details: cited from earlier work
[7] = system: DENV (serotype 2, strain 16681) in Huh7.5 cells; test: DENV Huh7.5 antiviral assay (infectious titer by plaque assay); assay type: cell-based, dengue virus; details: MOI 0.1, 48 h, titration of 4 or 50 µm of 3
Description: as §7, §8, §9, §10, §11, §5, §6

T1 sequence (A0A8I6GFL3 33-944): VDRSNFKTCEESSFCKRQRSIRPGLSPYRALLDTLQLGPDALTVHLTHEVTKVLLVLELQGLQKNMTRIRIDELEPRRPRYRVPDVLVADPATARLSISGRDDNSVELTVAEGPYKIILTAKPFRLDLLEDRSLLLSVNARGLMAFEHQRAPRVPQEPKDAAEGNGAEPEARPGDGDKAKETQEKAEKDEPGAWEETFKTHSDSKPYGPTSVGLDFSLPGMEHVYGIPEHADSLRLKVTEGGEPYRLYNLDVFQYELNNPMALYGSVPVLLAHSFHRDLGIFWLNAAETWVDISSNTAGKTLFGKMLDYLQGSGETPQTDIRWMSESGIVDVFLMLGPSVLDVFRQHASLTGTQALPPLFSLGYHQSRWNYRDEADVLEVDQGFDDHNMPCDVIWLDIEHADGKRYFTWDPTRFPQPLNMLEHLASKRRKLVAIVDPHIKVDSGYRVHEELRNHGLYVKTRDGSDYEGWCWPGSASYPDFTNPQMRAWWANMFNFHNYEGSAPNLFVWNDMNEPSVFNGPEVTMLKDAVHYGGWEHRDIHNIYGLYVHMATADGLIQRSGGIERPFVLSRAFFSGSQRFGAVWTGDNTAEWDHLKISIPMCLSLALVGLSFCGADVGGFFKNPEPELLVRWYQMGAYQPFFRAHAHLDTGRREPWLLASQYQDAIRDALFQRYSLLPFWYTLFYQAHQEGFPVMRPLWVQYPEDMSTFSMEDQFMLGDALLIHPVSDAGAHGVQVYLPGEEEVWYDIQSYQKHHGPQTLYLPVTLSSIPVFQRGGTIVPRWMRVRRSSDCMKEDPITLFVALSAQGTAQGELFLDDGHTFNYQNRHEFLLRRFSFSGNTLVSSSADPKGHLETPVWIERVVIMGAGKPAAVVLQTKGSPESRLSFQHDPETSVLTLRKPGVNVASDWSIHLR
T1 sequence (A0A8I6ADW9 1-525 partner): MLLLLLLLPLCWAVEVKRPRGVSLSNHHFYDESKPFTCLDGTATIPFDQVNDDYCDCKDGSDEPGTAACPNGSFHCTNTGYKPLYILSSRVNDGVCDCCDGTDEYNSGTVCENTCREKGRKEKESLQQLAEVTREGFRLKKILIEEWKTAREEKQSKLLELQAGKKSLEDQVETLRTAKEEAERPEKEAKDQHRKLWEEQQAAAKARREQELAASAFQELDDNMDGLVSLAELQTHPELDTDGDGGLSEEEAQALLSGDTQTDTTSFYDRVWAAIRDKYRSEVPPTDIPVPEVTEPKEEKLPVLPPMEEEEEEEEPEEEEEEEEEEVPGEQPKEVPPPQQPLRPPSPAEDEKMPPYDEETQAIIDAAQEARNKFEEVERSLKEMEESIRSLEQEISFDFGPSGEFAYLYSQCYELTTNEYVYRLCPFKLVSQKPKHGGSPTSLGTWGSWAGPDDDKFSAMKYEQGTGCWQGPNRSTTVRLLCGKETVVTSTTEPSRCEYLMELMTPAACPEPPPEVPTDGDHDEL

IC50 [1] | IC50 (Rat intestinal maltase) | IC50 [2] | IC50 [3] | SMILES | antiviral effect on infectious virus titer [4] | anti-HCV effect (infectious virus titer) [5] | increase of plasma levels when consumed with a lipid-rich meal [6] | anti-DENV effect (infectious virus titer) [7]
16000 nM | 160 nM | 2200 nM | 790 nM | OC[C@H]1NC[C@H](O)[C@@H](O)[C@@H]1O [Compound 1, D-1-deoxynojirimycin, reference compound] | – | – | – | –
– | – | – | – | Cc1c(C)c2c(c(C)c1O)CCC(C)(CCCC(C)CCCC(C)CCCC(C)C)O2 [Compound 3, D-(+)-α-tocopherol, reference compound] | no antiviral effect | Neither 4 nor 3 showed an anti-HCV eﬀect | 10 fold | Neither 4 nor 3 showed an anti-
